The subject of assay [1] is HGC-27. Nature of the assay: Cytotoxicity against human HGC-27 cells measured after 72 hrs by MTT assay. In kind it is functional, cell-based. To be noted: HGC-27, 72 h.
In assay [2] the test system is Enterococcus faecalis. Nature of the assay: Antibacterial activity against Enterococcus faecalis ATCC 29212 incubated for 16 to 18 hrs by CLSI based broth dilution method. In kind it is functional. Conditions: time 16-18 hrs.
The subject of assay [3] is Staphylococcus aureus. In words: Antibacterial activity against methicillin-resistant Staphylococcus aureus ATCC 43300 incubated for 16 to 18 hrs by CLSI based broth dilution method. In kind it is functional. Conditions: time 16-18 hrs.
In assay [4] the test system is Acinetobacter baumannii. Nature of the assay: Antibacterial activity against Acinetobacter baumannii ATCC 19606 assessed as reduction in microbial growth incubated for 16 to 18 hrs by CLSI based broth dilution method. In kind it is functional. Conditions: time 16-18 hrs.
The subject of assay [5] is Escherichia coli. In words: Antibacterial activity against Escherichia coli ATCC 25922 incubated for 16 to 18 hrs by CLSI based broth dilution method. In kind it is functional. To be noted: time 16-18 hrs.
The test system of assay [6] is Acinetobacter baumannii. Nature of the assay: Antibacterial activity against Acinetobacter baumannii 20-1 incubated for 16 to 18 hrs by CLSI based broth dilution method. In kind it is functional. To be noted: time 16-18 hrs.
The test system of assay [7] is HepG2. In words: Cytotoxicity against human HepG2 cells measured after 72 hrs by MTT assay. In kind it is functional, cell-based. To be noted: HepG2, 72 h.
The subject of assay [8] is Staphylococcus epidermidis. Nature of the assay: Antibacterial activity against Staphylococcus epidermidis ATCC 12228 incubated for 16 to 18 hrs by CLSI based broth dilution method. In kind it is functional. To be noted: time 16-18 hrs.
In assay [9] the test system is HCT-116. In words: Cytotoxicity against human HCT-116 cells measured after 72 hrs by MTT assay. In kind it is functional, cell-based. Conditions: HCT-116, 72 h.
For assay [10], the system named is Klebsiella pneumoniae. Nature of the assay: Antibacterial activity against Klebsiella pneumoniae ATCC 700603 assessed as reduction in microbial growth incubated for 16 to 18 hrs by CLSI based broth dilution method. In kind it is functional. Conditions: time 16-18 hrs.
Assay [11] deals with Acinetobacter baumannii. Nature of the assay: Antibacterial activity against Acinetobacter baumannii 20-2 incubated for 16 to 18 hrs by CLSI based broth dilution method. Conditions: time 16-18 hrs. In kind it is functional.
For assay [12], the system named is MCF7. In words: Cytotoxicity against human MCF7 cells measured after 72 hrs by MTT assay. Conditions: MCF7, 72 h. In kind it is functional, cell-based.
For assay [13], the system named is Staphylococcus aureus. In words: Antibacterial activity against methicillin-sensitive Staphylococcus aureus ATCC 29213 incubated for 16 to 18 hrs by CLSI based broth dilution method. In kind it is functional. Conditions: time 16-18 hrs.
In assay [14] the test system is Staphylococcus aureus. Nature of the assay: Antibacterial activity against methicillin-sensitive Staphylococcus aureus ATCC 25923 incubated for 16 to 18 hrs by CLSI based broth dilution method. In kind it is functional. To be noted: time 16-18 hrs.
In assay [15] the test system is Staphylococcus aureus. Nature of the assay: Antibacterial activity against Staphylococcus aureus ATCC 29213 incubated for 16 to 18 hrs by CLSI based broth dilution method. In kind it is functional. Conditions: time 16-18 hrs.
Assay [16] concerns Acinetobacter baumannii. In words: Antibacterial activity against Acinetobacter baumannii ATCC 19606 incubated for 16 to 18 hrs by CLSI based broth dilution method. In kind it is functional. Conditions: time 16-18 hrs.
Assay [17] deals with T1, Dihydrofolate reductase (Homo sapiens) (UniProt P00374).
T1 sequence (whole entry): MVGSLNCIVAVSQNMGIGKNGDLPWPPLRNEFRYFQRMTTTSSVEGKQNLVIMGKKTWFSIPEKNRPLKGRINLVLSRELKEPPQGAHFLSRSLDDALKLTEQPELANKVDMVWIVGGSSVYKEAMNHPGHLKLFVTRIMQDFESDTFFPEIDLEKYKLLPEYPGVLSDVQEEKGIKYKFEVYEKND
In words: Inhibition of human DHFR at 1 uM incubated for 10 mins in presence of NADPH by colorimetry based analysis relative to control.

Assay [18] has as its system Escherichia coli. In words: Antibacterial activity against Escherichia coli ECO 15-1 incubated for 16 to 18 hrs by CLSI based broth dilution method. In kind it is functional. Conditions: time 16-18 hrs.
Assay [19] relates to Staphylococcus aureus. Nature of the assay: Antibacterial activity against methicillin-sensitive Staphylococcus aureus 15-1 incubated for 16 to 18 hrs by CLSI based broth dilution method. Conditions: time 16-18 hrs. In kind it is functional.
In assay [20] the test system is Pseudomonas aeruginosa. Nature of the assay: Antibacterial activity against Pseudomonas aeruginosa ATCC 27853 incubated for 16 to 18 hrs by CLSI based broth dilution method. In kind it is functional. To be noted: time 16-18 hrs.
Assay [21] has as its system Klebsiella pneumoniae. Nature of the assay: Antibacterial activity against Klebsiella pneumoniae 15-1 assessed as reduction in microbial growth incubated for 16 to 18 hrs by CLSI based broth dilution method. In kind it is functional. To be noted: time 16-18 hrs.
The subject of assay [22] is Staphylococcus aureus. Nature of the assay: Antibacterial activity against vancomycin intermediate Staphylococcus aureus ATCC 700699 incubated for 16 to 18 hrs by CLSI based broth dilution method. In kind it is functional. To be noted: time 16-18 hrs.
Assay [23] concerns Staphylococcus aureus. Nature of the assay: Antibacterial activity against methicillin-sensitive Staphylococcus aureus 15-2 incubated for 16 to 18 hrs by CLSI based broth dilution method. Conditions: time 16-18 hrs. In kind it is functional.
The subject of assay [24] is Enterococcus faecalis. Nature of the assay: Antibacterial activity against Enterococcus faecalis EFA19-2 incubated for 16 to 18 hrs by CLSI based broth dilution method. To be noted: time 16-18 hrs. In kind it is functional.
Assay [25] relates to Enterococcus. In words: Antibacterial activity against Vancomycin-resistant Enterococcus ATCC 51575 incubated for 16 to 18 hrs by CLSI based broth dilution method. In kind it is functional. To be noted: time 16-18 hrs.
Assay [26] deals with Staphylococcus aureus. Nature of the assay: Antibacterial activity against vancomycin intermediate Staphylococcus aureus ATCC 700788 incubated for 16 to 18 hrs by CLSI based broth dilution method. In kind it is functional. Conditions: time 16-18 hrs.
Assay [27] relates to Enterococcus faecalis. Nature of the assay: Antibacterial activity against Enterococcus faecalis EFA19-1 incubated for 16 to 18 hrs by CLSI based broth dilution method. In kind it is functional. To be noted: time 16-18 hrs.
In assay [28] the test system is Escherichia coli. In words: Antibacterial activity against Escherichia coli ATCC BAA-2340 incubated for 16 to 18 hrs by CLSI based broth dilution method. To be noted: time 16-18 hrs. In kind it is functional.
In assay [29] the test system is Staphylococcus aureus. In words: Antibacterial activity against methicillin-resistant Staphylococcus aureus ATCC 33591 incubated for 16 to 18 hrs by CLSI based broth dilution method. In kind it is functional. To be noted: time 16-18 hrs.

≈ marks a conversion by molar mass, not a printed value.

Turning to `Nc1nc(N)c2c(ccc3c2ccn3Cc2ccc3ccccc3n2)n1`, the IC50 in [1] is 210 nM; in assay [7] it was 270 nM; in assay [9] it was above 10000 nM; in assay [12], 830 nM. Besides, the MIC in [2] is 0.06 µg/mL (≈ 0.176 µM); in assay [3], 0.03 µg/mL (≈ 0.0881 µM); in [4] it was 4 µg/mL; in assay [5], 0.5 µg/mL (≈ 1.47 µM); in assay [6] it was above 64 µg/mL; in assay [8], 0.25 µg/mL (≈ 0.734 µM). The minimum inhibitory concentration (MIC) is 2 µg/mL in assay [10]; 2 µg/mL (≈ 5.88 µM) in assay [11]; 0.06 µg/mL (≈ 0.176 µM) in [13]; 0.125 µg/mL (≈ 0.367 µM) in assay [14]; 0.06 µg/mL (≈ 0.176 µM) in assay [15]; 4 µg/mL (≈ 11.8 µM) in [16]. The MIC in assay [18] is above 64 µg/mL; in assay [19] it was at most 0.03 µg/mL; in assay [20] it was above 64 µg/mL; in [21] it was 4 µg/mL. Moreover, the inhibition in assay [17] came to 74.1%.
In the case of `Nc1nc(N)c2c(ccc3c2ccn3Cc2cccc3ccccc23)n1`, the MIC in assay [22] is 0.06 µg/mL (≈ 0.177 µM); in [23] it was at most 0.03 µg/mL; in [24], at most 0.03 µg/mL; in assay [2], 0.125 µg/mL (≈ 0.368 µM); in assay [3] it was 0.06 µg/mL (≈ 0.177 µM); in assay [4], 1 µg/mL. Also, the MIC in [5] is 1 µg/mL (≈ 2.95 µM); in [6] it was 32 µg/mL (≈ 94.3 µM); in assay [8], 1 µg/mL (≈ 2.95 µM); in assay [25], at most 0.03 µg/mL; in assay [10], 4 µg/mL; in assay [11] it was 2 µg/mL (≈ 5.89 µM). The MIC in [13] was at most 0.03 µg/mL; in assay [14] it was at most 0.03 µg/mL; in [15], 0.125 µg/mL (≈ 0.368 µM); in [16] it was 1 µg/mL (≈ 2.95 µM); in assay [26], at most 0.03 µg/mL; in [18] it was above 64 µg/mL. Also, the MIC is at most 0.03 µg/mL in [27]; above 64 µg/mL in [28]; at most 0.03 µg/mL in [19]; at most 0.03 µg/mL in [29]; above 64 µg/mL in assay [20]; 4 µg/mL in assay [21]. For the same compound, the IC50 in [1] is 1010 nM; in assay [7] it was 520 nM; in [9], above 10000 nM; in assay [12], 460 nM. In addition, the inhibition in assay [17] was determined as 83.9%.
Take `Nc1nc(N)c2c(ccc3c2ccn3Cc2ccc3nc(N)sc3c2)n1`: the IC50 in assay [1] was 6 nM; in assay [7], 61 nM; in assay [9], 4 nM; in assay [12] it was 250 nM. Further, the MIC in assay [2] was 2 µg/mL (≈ 5.53 µM); in assay [3], 2 µg/mL (≈ 5.53 µM); in assay [5] it was 4 µg/mL (≈ 11.1 µM); in assay [8], at most 0.004 µg/mL; in assay [15] it was 2 µg/mL (≈ 5.53 µM); in [16], above 32 µg/mL. Besides, the inhibition in [17] came out at 90.2%.
With `C[C@H]1COc2c(N3CCN(C)CC3)c(F)cc3c(=O)c(C(=O)O)cn1c23` [LEVOFLOXACIN ANHYDROUS], the MIC is 64 µg/mL (≈ 177 µM) in [22]; 64 µg/mL (≈ 177 µM) in assay [23]; 2 µg/mL (≈ 5.53 µM) in [24]; 0.25 µg/mL (≈ 0.692 µM) in assay [3]; 0.25 µg/mL in assay [4]; at most 0.03 µg/mL in [5]. For the same compound, the MIC in assay [25] was 1 µg/mL (≈ 2.77 µM); in [11], at most 0.03 µg/mL; in [13], 0.25 µg/mL (≈ 0.692 µM); in assay [14], 0.25 µg/mL (≈ 0.692 µM); in assay [26], 32 µg/mL (≈ 88.6 µM); in assay [18] it was 8 µg/mL (≈ 22.1 µM). The MIC stood at 1 µg/mL (≈ 2.77 µM) in assay [27], 32 µg/mL (≈ 88.6 µM) in [28], 16 µg/mL (≈ 44.3 µM) in assay [19] and 0.25 µg/mL (≈ 0.692 µM) in assay [29].
Take `Nc1nc(N)c2c(ccc3c2ccn3Cc2nc3ccccc3o2)n1`: the IC50 in assay [1] is 69 nM; in assay [7], 660 nM; in assay [9], 40 nM; in [12] it was 970 nM. Further, the MIC in assay [2] is 0.25 µg/mL (≈ 0.757 µM); in assay [3] it was 0.25 µg/mL (≈ 0.757 µM); in [5], 0.25 µg/mL (≈ 0.757 µM); in assay [8], 0.008 µg/mL (≈ 0.0242 µM); in [15], 0.5 µg/mL (≈ 1.51 µM); in assay [16], 16 µg/mL (≈ 48.4 µM). Further, the inhibition in [17] stood at 16.1%.
With `Nc1nc(N)c2c(ccc3c2ccn3Cc2cc3ccccc3o2)n1`, the IC50 in assay [1] was determined as 590 nM; in assay [7] it was 1070 nM; in assay [9], 4800 nM; in assay [12], 1000 nM. Besides, the MIC in [2] is 0.25 µg/mL (≈ 0.759 µM); in assay [3], 0.25 µg/mL (≈ 0.759 µM); in assay [5], 0.25 µg/mL (≈ 0.759 µM); in assay [8], at most 0.004 µg/mL; in assay [15] it was 0.25 µg/mL (≈ 0.759 µM); in [16], 32 µg/mL (≈ 97.2 µM). Moreover, in assay [17], the inhibition amounted to 29.1%.
